Laboratory results reported in PubChem BioAssay AID248 (DTP/NCI, 2004).
Inconclusive results and toxic doses are left out. Rule as the data show it: active = T/C of 150% or more; inactive = T/C below 125%.

System: L1210 leukemia ip in BDF1 mice, survival T/C
Assay: NCI In Vivo Anticancer Drug Screen. Data for tumor model L1210 Leukemia (intraperitoneal) in B6D2F1 (BDF1) mice
Settings: endpoint: mean survival time, higher = longer survival
Method in brief: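 Mice bearing the transplanted tumor received compound or vehicle. Survival of the treated group was divided by that of the vehicle-treated control group to give the ratio.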

[1] = dose: 50.0 mg/kg/injection, schedule: Q01DX009 (ip), vehicle: Klucel (hydroxypropylcellulose) (HPC)
[2] = dose: 100.0 mg/kg/injection, schedule: Q01DX009 (ip), vehicle: Klucel (hydroxypropylcellulose) (HPC)
[3] = dose: 100.0 mg/kg/injection, schedule: Q04DX003 (ip), vehicle: Klucel (hydroxypropylcellulose) (HPC)
[4] = dose: 200.0 mg/kg/injection, schedule: Q01DX009 (ip), vehicle: Klucel (hydroxypropylcellulose) (HPC)
[5] = dose: 200.0 mg/kg/injection, schedule: Q04DX003 (ip), vehicle: Klucel (hydroxypropylcellulose) (HPC)
[6] = dose: 400.0 mg/kg/injection, schedule: Q01DX009 (ip), vehicle: Klucel (hydroxypropylcellulose) (HPC)
[7] = dose: 400.0 mg/kg/injection, schedule: Q04DX003 (ip), vehicle: Klucel (hydroxypropylcellulose) (HPC)
[8] = dose: 100.0 mg/kg/injection, schedule: Q01DX009 (ip), vehicle: saline with Tween-80
[9] = dose: 200.0 mg/kg/injection, schedule: Q01DX009 (ip), vehicle: saline with Tween-80
[10] = dose: 400.0 mg/kg/injection, schedule: Q01DX009 (ip), vehicle: saline with Tween-80
[11] = dose: 100.0 mg/kg/injection, schedule: Q04DX002 (ip), vehicle: Klucel (hydroxypropylcellulose) (HPC)
[12] = dose: 200.0 mg/kg/injection, schedule: Q04DX002 (ip), vehicle: Klucel (hydroxypropylcellulose) (HPC)
[13] = dose: 400.0 mg/kg/injection, schedule: Q04DX002 (ip), vehicle: Klucel (hydroxypropylcellulose) (HPC)
[14] = dose: 100.0 mg/kg/injection, schedule: Q01DX001 (ip), vehicle: saline
[15] = dose: 200.0 mg/kg/injection, schedule: Q01DX001 (ip), vehicle: saline
[16] = dose: 400.0 mg/kg/injection, schedule: Q01DX001 (ip), vehicle: saline
[17] = dose: 100.0 mg/kg/injection, schedule: Q01DX001 (ip), vehicle: carboxymethylcellulose (CMC)
[18] = dose: 200.0 mg/kg/injection, schedule: Q01DX001 (ip), vehicle: carboxymethylcellulose (CMC)
[19] = dose: 400.0 mg/kg/injection, schedule: Q01DX001 (ip), vehicle: carboxymethylcellulose (CMC)
[20] = dose: 100.0 mg/kg/injection, schedule: Q04DX003 (ip), vehicle: other

Measured: T/C

CC(=O)Nc1c(C)cc(C)cc1C
inactive: [1] 105 % of control | [2] 106 % of control | [3] 96 % of control | [4] 103 % of control | [5] 102 % of control | [6] 103 % of control | [7] 104 % of control

CCCCCCCCCCCC[Si](Cl)(Cl)Cl
inactive: dose: 75.0 mg/kg/injection, schedule: Q01DX001 (ip), vehicle: saline 105 % of control

c1ccc2oc(CCCCc3nc4ccccc4o3)nc2c1
inactive: [2] 91 % of control | [3] 102 % of control | [4] 102 % of control | [5] 104 % of control | [6] 92 % of control | [7] 102 % of control

CCOC(=O)c1cnc(SC)nc1Nc1cccc(OC)c1
inactive: [3] 108 % of control | [5] 110 % of control | [7] 101 % of control

CCc1c(CBr)c(=O)[nH]c2ccccc12
inactive: dose: 100.0 mg/kg/injection, schedule: Q01DX001 (ip), vehicle: other 96 % of control

O/N=C(/CN1CCCCC1)c1ccccc1
inactive: dose: 100.0 mg/kg/injection, schedule: Q04DX003 (ip), vehicle: saline with Tween-80 95 % of control | dose: 200.0 mg/kg/injection, schedule: Q04DX003 (ip), vehicle: saline with Tween-80 98 % of control | dose: 400.0 mg/kg/injection, schedule: Q04DX003 (ip), vehicle: saline with Tween-80 104 % of control

CN(C)/N=N/c1ncn(C2CCCO2)c1C(N)=O (centres undefined)
inactive: dose: 200.0 mg/kg/injection, schedule: Q01DX005 (ip), vehicle: saline 115 % of control

[N-]=C(CC(=O)c1ccccc1)c1ccccc1.[N-]=C(CC(=O)c1ccccc1)c1ccccc1.[Ni+2]
inactive: dose: 12.5 mg/kg/injection, schedule: Q04DX003 (ip), vehicle: Klucel (hydroxypropylcellulose) (HPC) 90 % of control | dose: 25.0 mg/kg/injection, schedule: Q04DX003 (ip), vehicle: Klucel (hydroxypropylcellulose) (HPC) 93 % of control | dose: 50.0 mg/kg/injection, schedule: Q04DX003 (ip), vehicle: Klucel (hydroxypropylcellulose) (HPC) 91 % of control | [3] 90 % of control | [5] 93 % of control | [7] 90 % of control

CC1(C)[C@H]2CC[C@@]1(C)C(=O)[C@H]2[N+](=O)[O-]
inactive: [3] 103 % of control | [5] 86 % of control | [7] 93 % of control

O=C1c2ccccc2C(=O)N1CNc1cccc(NCN2C(=O)c3ccccc3C2=O)n1
inactive: [8] 92 % of control | [9] 91 % of control | [10] 93 % of control

CCCNC(=O)Nc1ccc(S(N)(=O)=O)cc1
inactive: [11] 97 % of control | [12] 97 % of control | [13] 87 % of control

Cc1nc2ccccc2cc1CCl
inactive: dose: 75.0 mg/kg/injection, schedule: Q01DX001 (ip), vehicle: acetone 88 % of control | dose: 150.0 mg/kg/injection, schedule: Q01DX001 (ip), vehicle: acetone 88 % of control

C=COCCCCCCCCCCCC(CCCCCC)OC=C (centres undefined)
inactive: [11] 94 % of control | [12] 105 % of control

C=C1C2CCC3(C)C(c4ccoc4)OC(=O)CC13OC1CC(=O)C(C)(C)C(CC(=O)OC)C12C (centres undefined)
inactive: [14] 97 % of control | [15] 96 % of control | [16] 114 % of control

COc1ccc(OC)c(/C=C/c2ccnc3ccccc23)c1
inactive: dose: 50.0 mg/kg/injection, schedule: Q01DX001 (ip), vehicle: carboxymethylcellulose (CMC) 93 % of control | [17] 96 % of control | [18] 91 % of control | [19] 87 % of control

CC[n+]1ccc(/C=C\c2cccc([N+](=O)[O-])c2)cc1
inactive: dose: 25.0 mg/kg/injection, schedule: Q01DX009 (ip), vehicle: Klucel (hydroxypropylcellulose) (HPC) 91 % of control | [1] 91 % of control | [2] 98 % of control | [3] 93 % of control

CC(C)(C)[CH2][Sn]([Br])([Br])[CH2]C(C)(C)C
inactive: dose: 9.38 mg/kg/injection, schedule: Q01DX001 (ip), vehicle: other 98 % of control

CCCCOP(=O)(N1CC1CC)N1CC1CC (centres undefined)
inactive: dose: 6.25 mg/kg/injection, schedule: Q01DX009 (ip), vehicle: other 99 % of control | dose: 6.25 mg/kg/injection, schedule: Q04DX003 (ip), vehicle: other 95 % of control | dose: 12.5 mg/kg/injection, schedule: Q01DX009 (ip), vehicle: other 95 % of control | dose: 12.5 mg/kg/injection, schedule: Q04DX003 (ip), vehicle: other 97 % of control | dose: 25.0 mg/kg/injection, schedule: Q01DX009 (ip), vehicle: other 92 % of control | dose: 25.0 mg/kg/injection, schedule: Q04DX003 (ip), vehicle: other 92 % of control | dose: 50.0 mg/kg/injection, schedule: Q04DX003 (ip), vehicle: other 94 % of control | [20] 95 % of control

CCOC=Nc1cc(-n2cnc3c(Cl)ncnc32)ccc1C
inactive: [17] 87 % of control | [18] 98 % of control | [19] 96 % of control

O=C(O)CCCCCCCCC(=O)c1ccccc1
inactive: [8] 95 % of control | [9] 91 % of control | [10] 95 % of control

C=C(C)[C@@H](/C=C/[C@@H](C)[C@H]1CC[C@H]2C3=CC[C@H]4C[C@@H](O)CC[C@]4(C)[C@H]3CC[C@]12C)CC
inactive: [17] 96 % of control | [18] 100 % of control

O=C1NC(=O)/C(=C\c2ccc(OCc3ccccc3)c(OCc3ccccc3)c2)N1
inactive: dose: 100.0 mg/kg/injection, schedule: Q01DX001 (ip), vehicle: saline with Tween-80 88 % of control | dose: 400.0 mg/kg/injection, schedule: Q01DX001 (ip), vehicle: saline with Tween-80 96 % of control

O=C1NC2(CCc3ccccc32)C(=O)O1 (centres undefined)
inactive: [3] 110 % of control | [5] 100 % of control | [7] 98 % of control

CCC(C)C(C=NCC(CCN(CC)CC)(c1cccc2ccccc12)C(C)CC)(CCN(CC)CC)c1cccc2ccccc12 (centres undefined)
inactive: dose: 100.0 mg/kg/injection, schedule: Q04DX002 (ip), vehicle: saline with Tween-80 94 % of control | dose: 200.0 mg/kg/injection, schedule: Q04DX002 (ip), vehicle: saline with Tween-80 97 % of control | dose: 400.0 mg/kg/injection, schedule: Q04DX002 (ip), vehicle: saline with Tween-80 87 % of control

c1ccc(C(c2ccccc2)c2ccccn2)cc1
inactive: dose: 50.0 mg/kg/injection, schedule: Q04DX002 (ip), vehicle: other 95 % of control | [11] 98 % of control | dose: 100.0 mg/kg/injection, schedule: Q04DX002 (ip), vehicle: other 95 % of control | [20] 103 % of control | [12] 102 % of control | dose: 200.0 mg/kg/injection, schedule: Q04DX002 (ip), vehicle: other 95 % of control | dose: 200.0 mg/kg/injection, schedule: Q04DX003 (ip), vehicle: other 117 % of control | [13] 106 % of control | dose: 400.0 mg/kg/injection, schedule: Q04DX003 (ip), vehicle: other 111 % of control

Cc1ccc(-n2cnc3c(=O)[nH]cnc32)cc1
inactive: [14] 98 % of control | [15] 93 % of control | [16] 93 % of control
